Patent US11518742B2 (priority 2020, dated 2022)
Read-outs that look alike come from different tables or passages of the source.

How the values were obtained:
[1] = Toxicokinetics in dog MTD study (Study 62958); type: in vivo
Protocol: During Phase 2, assessments of mortality, clinical signs, body weights and food consumption were performed. […] Following the last dosing, all animals were euthanized and subjected to a necropsy examination on Day 8. The necropsy consisted of an external examination; including reference to all clinically-recorded lesions, as well as a detailed internal examination. Study plan specific tissues/organs were collected and preserved following necropsy but were not further examined microscopically.
There were no sex differences in any of the measured toxicokinetic parameters on either occasion.

[2] = Summary of clinical observations in applicant-sponsored rat studies; settings: Sprague Dawley, in vivo, other: intranasal instillation, HED 48 mg, read-out: NOAEL determined in the 14-day toxicology studies
Excerpt: Based on preliminary data from another ongoing study in dogs, it has been observed that the site of blood sampling in dogs may impact the measured plasma exposure. Samples from the jugular vein may result in higher apparent exposure levels than samples from the cephalic vein, which might be due to the local transmucosal route of administration (also reported in the scientific literature (Illum, 2003; Sohlberg, 2013)). Therefore, dose escalation criteria for the Phase 1 Single Ascending Dose study are based on assessment of clinical criteria, safety factors and exposure. A maximum dose of 14 mg has been designated.

[3] = Toxicokinetics, 14-day intranasal study in rats (Study 700041); type: in vivo; settings: Sprague Dawley, rat, plasma, inhaled or intranasal; for AUC(0-t): read-out: AUC0-Tlast [SE]; for AUC(0-inf): read-out: AUCINF_obs
Protocol: The animals were monitored for mortality, clinical signs, respiratory measurements, body weights, food consumption, and body temperature. Ophthalmoscopic examinations and respiratory function tests were performed on all animals at scheduled timepoints. Clinical pathology assessments (hematology, coagulation, clinical chemistry, and urinalysis) were evaluated at termination. […] Following dosing, the Main animals were euthanized and subjected to a complete necropsy examination on Day 15. […] TK animals were euthanized after the last blood collection and discarded without further examination. At terminal euthanasia, selected tissues/organs were weighed, and microscopic evaluations of a standard set of tissues including the nasal turbinates (4 sections) and brain (7 sections) were performed for all Main and Recovery study animals.
Following dosing, animals in the Main group were euthanized and subjected to a necropsy examination on Day 15.

[4] = test system: Chinese hamster ovary (CHO)-K1 cells; assay: In vitro micronucleus test (flow cytometry); type: cell-based
Excerpt: The treatment with the vehicle/negative and positive controls was concurrently performed.

[5] = test system: Salmonella typhimurium tester strains; assay: Bacterial Reverse Mutation Test (Ames test), Salmonella typhimurium
Sprague-Dawley rats = assay: Maximum tolerated dose followed by 7-day repeat-dose toxicology in rats (Study 700040); type: in vivo, rat
Protocol: (§1) The study consisted of 2 parts. […] The doses used in part 1 were 15, 30, 50, 65, and 75 mg/kg. Each subsequent dose was administered following at least 24 hours from the commencement of the previous dose. There were 2 males and 2 females in each dose group.
(§2) During Phase I, assessments of mortality, clinical signs and body weights were performed. […] The necropsy consisted of an external examination, including reference to all clinically-recorded lesions, as well as a detailed internal examination.
(§3) During Phase 2, assessments of mortality, clinical signs and body weights were performed. Following dosing, all animals were euthanized and subjected to a necropsy examination on Day 8. The necropsy consisted of an external examination, including reference to all clinically-recorded lesions, as well as a detailed internal examination. Study plan specific tissues/organs were collected and retained, then trimmed and preserved promptly once the animal was euthanized but these were not further examined microscopically.

[6] = as above; type: in vivo, rat; settings: both sexes, Sprague-Dawley, rat, in vivo, inhaled or intranasal; single intranasal administration
Protocol: as §1, §2, §3

[7] = target: hERG potassium channel current (IKr) (Homo sapiens, UniProt Q12809); assay: cell-based
Chain of hERG potassium channel current (IKr) (Q12809 whole entry): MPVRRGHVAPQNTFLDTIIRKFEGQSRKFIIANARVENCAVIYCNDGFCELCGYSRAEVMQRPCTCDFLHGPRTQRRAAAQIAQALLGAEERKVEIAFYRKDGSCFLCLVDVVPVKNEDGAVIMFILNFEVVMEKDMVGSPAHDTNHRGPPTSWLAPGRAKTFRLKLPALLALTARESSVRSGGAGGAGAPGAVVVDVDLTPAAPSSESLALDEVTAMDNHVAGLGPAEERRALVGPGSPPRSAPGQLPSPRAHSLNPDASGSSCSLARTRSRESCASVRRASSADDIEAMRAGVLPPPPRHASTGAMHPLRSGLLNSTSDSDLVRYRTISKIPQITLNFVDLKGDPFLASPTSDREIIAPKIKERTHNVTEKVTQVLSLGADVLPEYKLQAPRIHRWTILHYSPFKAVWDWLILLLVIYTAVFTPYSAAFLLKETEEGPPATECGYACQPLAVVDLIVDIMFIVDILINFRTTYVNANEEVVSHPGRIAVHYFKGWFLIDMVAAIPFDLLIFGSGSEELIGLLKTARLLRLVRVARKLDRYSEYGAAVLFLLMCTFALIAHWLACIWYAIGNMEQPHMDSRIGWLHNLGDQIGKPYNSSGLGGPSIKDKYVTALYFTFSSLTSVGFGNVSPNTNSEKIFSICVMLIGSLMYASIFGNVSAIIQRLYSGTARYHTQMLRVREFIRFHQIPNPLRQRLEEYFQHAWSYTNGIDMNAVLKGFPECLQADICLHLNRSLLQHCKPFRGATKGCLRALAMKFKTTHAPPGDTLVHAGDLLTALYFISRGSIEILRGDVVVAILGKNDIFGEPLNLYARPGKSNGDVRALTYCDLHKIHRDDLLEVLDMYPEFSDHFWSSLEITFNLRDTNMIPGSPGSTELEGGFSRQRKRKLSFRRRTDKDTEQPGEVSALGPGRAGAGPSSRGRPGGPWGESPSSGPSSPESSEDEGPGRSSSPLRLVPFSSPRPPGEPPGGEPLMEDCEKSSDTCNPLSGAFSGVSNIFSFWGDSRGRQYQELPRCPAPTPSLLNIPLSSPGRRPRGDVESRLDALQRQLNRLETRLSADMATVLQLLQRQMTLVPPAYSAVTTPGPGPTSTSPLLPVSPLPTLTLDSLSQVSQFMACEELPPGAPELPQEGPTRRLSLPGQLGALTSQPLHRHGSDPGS
Excerpt: This assay is employed as a screen to assess potential risks for QT interval prolongation.

[8] = female, 5 mg/kg/day, Day 1, Female
[9] = female, 5 mg/kg/day, Day 14, Female
[10] = female, 20 mg/kg/day, Day 1, Female
[11] = female, 75 mg/kg/day, Day 1, Female
[12] = female, 75 mg/kg/day, Day 14, Female
[13] = male, 5 mg/kg/day, Day 14, Male
[14] = male, 20 mg/kg/day, Day 1, Male
[15] = male, 20 mg/kg/day, Day 14, Male
[16] = male, 75 mg/kg/day, Day 1, Male
[17] = male, 75 mg/kg/day, Day 14, Male

With COc1ccc2[nH]cc(CCN(C)C)c2c1 [BPL-5MEO, 5-methoxy-N,N-dimethyltryptamine] the “Accumulation over the 7-day treatment period” value ([1]; daily intranasal instillation) was “did not accumulate”, the Tmax ([1]; dog, plasma, inhaled or intranasal, dogs, Days 1 and 7, both sexes) was 2 to 15 min and the NOAEL at 14 days [2] was 5 mg/kg.
Compound COc1ccc2[nH]cc(CCN(C)C)c2c1 [5MeODMT, 5-methoxy-N,N-dimethyltryptamine] has a Tmax ([3]; both sexes, 75 mg/kg, rats, 14-day intranasal study, 5, 20, 75 mg/kg) of 2 to 5 min, a half-life ([3]; both sexes, 75 mg/kg, rats, 14-day intranasal study, 5, 20, 75 mg/kg, read-out: apparent t1/2) of 6.8 to 9.4 min and a Cmax [3, 8] of 186 ng/mL. For the same compound, the Tmax [3, 8] was 9.96 min, the AUC(0-t) [3, 8] was 53.2 ng·h/mL and the AUC(0-inf) [3, 8] was 53.7 ng·h/mL. The Cmax [3, 9] was 645 ng/mL, the AUC(0-t) [3, 9] was 63.8 ng·h/mL and the AUC(0-inf) [3, 9] was 64 ng·h/mL. The half-life ([3]; female, 5 mg/kg/day, Day 14, Female, read-out: t1/2 (converted)) was 6.78 min, the Cmax [3, 10] was 679 ng/mL and the AUC(0-t) [3, 10] was 198 ng·h/mL. The AUC(0-inf) [3, 10] was 198 ng·h/mL, the Cmax ([3]; female, 20 mg/kg/day, Day 14, Female) was 795 ng/mL and the Cmax [3, 11] was 1310 ng/mL. For the same compound, the AUC(0-t) [3, 11] was 228 ng·h/mL, the AUC(0-inf) [3, 11] was 228 ng·h/mL and the half-life ([3]; female, 75 mg/kg/day, Day 1, Female, read-out: t1/2 (converted)) was 9.36 min. It also gave a Cmax [3, 12] of 870 ng/mL, an AUC(0-t) [3, 12] of 155 ng·h/mL and a half-life ([3]; female, 75 mg/kg/day, Day 14, Female, read-out: t1/2 (converted)) of 7.8 min. For the same compound, the Cmax ([3]; male, 5 mg/kg/day, Day 1, Male) was 191 ng/mL, the AUC(0-t) ([3]; male, 5 mg/kg/day, Day 1, Male) was 39.9 ng·h/mL and the AUC(0-inf) ([3]; male, 5 mg/kg/day, Day 1, Male) was 40.1 ng·h/mL. For the same compound, the Cmax [3, 13] was 627 ng/mL, the AUC(0-t) [3, 13] was 114 ng·h/mL and the AUC(0-inf) [3, 13] was 115 ng·h/mL. For the same compound, the Cmax [3, 14] was 4190 ng/mL, the AUC(0-t) [3, 14] was 420 ng·h/mL and the AUC(0-inf) [3, 14] was 421 ng·h/mL. For the same compound, the half-life ([3]; male, 20 mg/kg/day, Day 1, Male, read-out: t1/2 (converted)) was 7.5 min, the Cmax [3, 15] was 1200 ng/mL and the AUC(0-t) [3, 15] was 133 ng·h/mL. The AUC(0-inf) [3, 15] was 133 ng·h/mL, the half-life ([3]; male, 20 mg/kg/day, Day 14, Male, read-out: t1/2 (converted)) was 8.58 min and the Cmax [3, 16] was 7010 ng/mL. The AUC(0-t) [3, 16] was 1030 ng·h/mL, the AUC(0-inf) [3, 16] was 1040 ng·h/mL and the Cmax [3, 17] was 3290 ng/mL. It also gave an AUC(0-t) [3, 17] of 391 ng·h/mL, an AUC(0-inf) [3, 17] of 392 ng·h/mL and a half-life ([3]; male, 75 mg/kg/day, Day 14, Male, read-out: t1/2 (converted)) of 6.96 min. For the same compound, the “Chromosome-damaging potential (conclusion)” value [4] was “no chromosome-damaging potential”, the “Micronuclei or hypodiploid cells” value ([4]; all treatment regimens, absence or presence of S9) was “did not induce any increases in micronuclei or hypodiploid cells” and the Cytotoxicity or precipitation ([4]; up to the maximal dose level of 300 μg/mL) was “No cytotoxicity or precipitation”. For the same compound, the Cytotoxicity ([5]; 1600 μg/plate, all S. typhimurium strains) was “slight cytotoxicity”, the “Repeat test, revertant colonies” value ([5]; TA1537 and TA98, absence of S9 mix, up to 2000 μg/plate) was “no increases in the revertant colonies number per plate” and the “Mutagenic potential (conclusion)” value ([5]; absence or presence of S9) was “no mutagenic potential”. For the same compound, the Body weight gain (Sprague-Dawley rats; 75 mg/kg for 7 consecutive days) was “slightly suppressed for both sexes”, the “Tolerability, 7 consecutive days” value (Sprague-Dawley rats; 75 mg/kg once daily intranasal) was “tolerated” and the “Tolerability, single intranasal administration” value (Sprague-Dawley rats; dose levels up to 75 mg/kg) was “tolerated”. For the same compound, the “Mortality and gross pathology” value (Sprague-Dawley rats; single dose 15, 30, 50, 65, 75 mg/kg) was “no mortality and gross pathology findings at any dose”, the MTD at 14 days [6] was 75 mg/kg and the IC50 [7] was 8.69 µM. It also gave an inhibition at 1 µM ([7]; human) of 5.03 ± 1.95%, an inhibition at 3 µM ([7]; human) of 23.8 ± 6.1% and an inhibition at 10 µM ([7]; human) of 52.7 ± 2.61%. The inhibition at 35 µM ([7]; human) was 82.2 ± 1.91%.
